Test results as given in US5679521A, “Steroid 5A-reductases” (priority 1995, dated 1997).
Positions count from the first letter of the chain named. Several values for one entry are separate records, joined by “and”; a condition that tells them apart may be missing. Equal entries are not always repeated.

Columns and labels:
[1] = tested on: prostate extract and steroid 5α-reductase 1; assay: finasteride inhibition of mixed aliquots of prostate extract and steroid 5α-reductase 1 extract; assay type: biochemical, human; settings: aliquots with equivalent 5α-reductase activity mixed
[2] = tested on: steroid 5α-reductase; settings: Liang et al., 1985; cited from earlier work
[3] = target: T1, rat steroid 5α-reductase (Rattus norvegicus, UniProt P24008); set-up: the open reading frame would encode a hydrophobic protein of 255 amino acids; expressed in transfected cells; host or cells: simian COS-M6 cells, pCMV4 vector; settings: simian COS cells; Andersson & Russell, 1990; cited from earlier work
T1 sequence (P24008 5-259): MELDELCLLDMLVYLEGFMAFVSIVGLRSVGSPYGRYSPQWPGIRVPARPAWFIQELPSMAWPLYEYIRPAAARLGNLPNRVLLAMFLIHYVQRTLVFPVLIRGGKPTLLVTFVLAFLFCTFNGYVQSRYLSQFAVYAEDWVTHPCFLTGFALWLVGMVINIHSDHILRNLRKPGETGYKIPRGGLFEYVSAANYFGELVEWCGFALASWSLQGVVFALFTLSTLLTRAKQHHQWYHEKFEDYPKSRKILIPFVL

[4] = tested on: major human prostate 5α-reductase enzyme; settings: Liang et al., 1985; cited from earlier work
[5] = target: T2, human steroid 5α-reductase 1 (Homo sapiens, UniProt P18405); assay: finasteride inhibition of steroid 5α-reductase 1 expressed in COS cells (Example 6); assay type: biochemical; set-up: Human 5α-reductase 1 is 259 residues long; expressed in transfected cells; host or cells: simian COS-M6 cells, pCMV4 vector
T2 sequence (P18405 1-259): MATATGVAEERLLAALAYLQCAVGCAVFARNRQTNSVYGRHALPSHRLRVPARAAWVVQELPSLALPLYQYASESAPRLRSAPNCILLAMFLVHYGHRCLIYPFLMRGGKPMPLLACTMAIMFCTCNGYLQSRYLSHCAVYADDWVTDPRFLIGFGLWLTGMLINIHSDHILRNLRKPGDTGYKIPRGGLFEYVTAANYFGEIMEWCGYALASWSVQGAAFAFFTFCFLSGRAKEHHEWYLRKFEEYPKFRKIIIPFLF

[6] = target: T3, human 5α-reductase 2 (Homo sapiens, UniProt P31213, L89V); assay: finasteride inhibition of 5α-reductase 2 expressed in human embryonic kidney 293 cells (FIG. 15B); assay type: biochemical; settings: 5α-reductase 2, 293 cells
T3 construct: predicted to be a hydrophobic polypeptide of 254 amino acids; expressed in transfected cells; host or cells: human embryonic kidney 293 cells, pCMV expression vector
T3 sequence (P31213 1-254 L89V): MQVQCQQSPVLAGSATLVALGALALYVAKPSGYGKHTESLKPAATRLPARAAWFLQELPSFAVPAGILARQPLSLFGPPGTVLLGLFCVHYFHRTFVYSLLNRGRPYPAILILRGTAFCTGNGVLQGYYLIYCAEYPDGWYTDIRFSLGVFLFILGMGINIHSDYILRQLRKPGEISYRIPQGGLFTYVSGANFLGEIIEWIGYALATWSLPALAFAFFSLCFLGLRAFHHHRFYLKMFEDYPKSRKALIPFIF
Method: (§1) FIGS. 15A-15B. Characterization of expressed human 5α-reductase isozymes with regard to pH optima and finasteride inhibition. Expression plasmids containing the 5α-reductase 1 or 2 cDNAs (FIGS. 7 and 13, respectively) were transfected into human embryonic kidney 293 cells. […] Reductase enzyme activity obtained in extracts of transfected human embryonic kidney 293 cells in the absence of inhibitor was defined as 100%. In both panels, conversion into dihydrotestosterone was determined, after 10 minute incubations, by thin layer chromatography. Protein concentrations in cell extracts were measured as in Lowry, 1951.
(§2) Steroid 5α-Reductase Assay. […] Termination, organic extraction and TLC were performed as described in Example 1, using a chloroform-ethyl acetate (3:1, v/v) mobile phase in the TLC.
(§3) The properties of the two human steroid 5α-reductase isozymes were also compared directly, following expression in human embryonic kidney 293 cells.

[7] = target: T4, human 5α-reductase 2 (Homo sapiens, UniProt P31213); assay: as above; assay type: biochemical
T4 construct: predicted to be a hydrophobic polypeptide of 254 amino acids; expressed in transfected cells; host or cells: human embryonic kidney 293 cells, pCMV expression vector
T4 sequence (P31213 1-254 L89V): T3 sequence (P31213 1-254 L89V)
Method: as §1, §2, §3

[8] = target: T5, human prostate 5α-reductase (prostate extract) (Homo sapiens, UniProt P31213); assay: finasteride inhibition of 5α-reductase in human prostate extract; assay type: biochemical
T5 construct: Prostate tissue was obtained from subjects undergoing surgical treatment for benign prostatic hyperplasia; from tissue; host or cells: human prostate (benign prostatic hyperplasia), membrane extract
T5 sequence (P31213 1-254): T3 sequence (P31213 1-254 L89V) with V89L

[9] = target: T2, human steroid 5α-reductase 1; assay: steroid 5α-reductase activity/inhibition in vitro, homogenates of COS cells expressing human steroid 5α-reductase 1 cDNA (Table III); settings: apparent Ki, human enzyme; two [14C]testosterone concentrations; Dixon plots
Description: (§4) Expression Vector Construction. A rat steroid 5α-reductase cDNA corresponding to nucleotides 1-1962 (see Example 1) was ligated into the pCMV4 expression vector (Andersson et al., 1989b). A human cDNA corresponding to nucleotides 1 to 842 of FIG. 7 was initially ligated into pCMV4. […] After amplification, the product was ligated into pCMV4.
(§5) Expression of Steroid 5α-Reductase 1 cDNAs in COS Cells. Simian COS-M6 cells were transfected as described by Andersson et al. (1989b). The assay of steroid 5α-reductase activity in intact cells was carried out as described in Example 1 except that [^14 C]-labeled steroid dissolved in ethanol were added to the transfected cell medium and subsequent organic extractions were carried out with dichloromethane. TLC and liquid scintillation counting were performed as described in Example 1.
(§6) To assay steroid 5α-reductase activity in vitro, cells were harvested 48 hours after transfection, washed once with phosphate buffered saline and either frozen in liquid N2 or homogenized directly with a Polytron in 10 mM potassium phosphate (pH 7.4), 150 mM KCl and 1 mM EDTA, at a protein concentration of 2 mg/ml. A typical assay contained 10 to 50 μg of cell homogenate protein in 0.5 ml of 0.1M potassium phosphate buffer (pH 6.6, rat enzyme; pH 7.0, human enzyme). Steroids were added in 5 μl ethanol, and the reaction was initiated by the addition of NADPH to a final concentration of 2-5 mM. Incubations were carried out for 10 min at 37° C. and terminated by the addition of 5 ml dichloromethane. Organic execrations and thin-layer chromatography analysis were as described above.
(§7) The apparent Km and Vmax values in this system were determined in vitro with five different steroid substrates (Table III).
(§8) The apparent Ki values were then determined for 4-aza-steroid (4-MA and MK-906) inhibition of 5α-reductases expressed in COS cells. […] The data obtained were analyzed using Dixon plots to determine the type of inhibition and the apparent Ki value (Dixon et al., 1979).
(§9) COS call transfaction, cell homogonate preparation, and enzyme assay were
(§10) carried out as described in Materials and Methods. Each Km value
(§11) represents the average of at least two experiments carried out on
(§12) different days using cell lysates prepared from different transfections.

[10] = target: T1, rat steroid 5α-reductase; assay: steroid 5α-reductase activity/inhibition in vitro, homogenates of COS cells expressing rat cDNA (Table III); settings: apparent Ki, rat enzyme; two [14C]testosterone concentrations; Dixon plots
Description: as §4, §5, §6, §7, §8, §9, §10, §11, §12

[11] = target: T1, rat steroid 5α-reductase; assay: steroid 5α-reductase assay in intact transfected COS cells, rat cDNA; assay type: cell-based; set-up: the open reading frame would encode a hydrophobic protein of 255 amino acids; expressed in transfected cells; host or cells: simian COS-M6 cells, pCMV4 vector; settings: rat enzyme expressed in COS cells; 37° C., 2 hr
Description: as §4, §5
COS cells were transiently transfected with expression vectors harboring the rat or human steroid 5α-reductase 1 cDNAs, or with the pCMV4 vector alone.
IC50 values for MK-906 and 4-MA inhibition of 5α-reductases expressed in COS cells were also determined. […] See Example 6 and FIG. 15, for further analysis of 4-aza-steroid inhibition.

[12] = target: T6, human 5α-reductase 1 (Homo sapiens, UniProt P18405); assay: finasteride inhibition of 5α-reductase 1 expressed in human embryonic kidney 293 cells (FIG. 15B); assay type: biochemical
T6 construct: Human 5α-reductase 1 is 259 residues long; expressed in transfected cells; host or cells: human embryonic kidney 293 cells
T6 sequence (P18405 1-259): T2 sequence (P18405 1-259)
Method: as §1, §2, §3

inhibition curve of mixed extracts [1]: biphasic
IC50 [5]: 10000 nM
Ki [6]: ~5 nM
IC50 [7]: ~30 nM
IC50 [8]: 10 nM
Ki [9]: 340 to 620 nM and 340 nM and 380 nM and 620 nM
Ki [10]: 3 to 5 nM and 3 nM and 4 nM and 5 nM
IC50 inhibition, relative potency of MK-906 and 4-MA [11]: equipotent
IC50 [12]: ~900 nM
Ki ([12]; 5α-reductase 1, 293 cells): ~230 nM
Compound: CC(C)(C)NC(=O)[C@H]1CC[C@H]2[C@@H]3CC[C@H]4NC(=O)C=C[C@]4(C)[C@H]3CC[C@]12C [MK-906, 17β-N-t-butylcarbamoyl-4-aza-5α-androst-1-en-3-one]
type of inhibition [2]: competitive inhibitors
inhibition of rat steroid 5α-reductase [3]: inhibited
type of inhibition [4]: competitive inhibitor
